Reference: patent US8741884B2, “Compounds for the treatment of hepatitis C” (priority 2010, dated 2014)

test system: HCV pseudoparticles (genotype 1a HCV E1 and E2 envelope, H77C isolate); assay: microbe, parasite or virus in culture; type: cell-based; conditions: Hepatitis C virus, Huh-7, 48 h, class symbol; HCV pseudoparticles genotype 1a (H77C), Huh7 cells, luciferase 2 days after infection, average of duplicates

First: CN(C)CC(C)(C)CNC(=O)c1ccc2cc1OCCCCCCOc1ccccc1CNc1nc(nc(OCC(F)(F)F)n1)N2 [Example 1806]
Second: CN(C)CC(C)(C)CNC(=O)c1ccc2cc1OCCCCOc1cccc(c1)CNc1nc(nc(OCC(F)(F)F)n1)N2 [Example 1802]
The EC50 of the first is higher: 100 to 1000 nM for the first, 0.1 to 100 nM for the second.

`COC(=O)CCNC(=O)c1ccc2cc1OCCCCCCOc1ccc(cc1)CNc1nc(nc(OCC(F)(F)F)n1)N2` [Example 1303] and `NC[C@@H](NC(=O)c1ccc2cc1OCCCCCCOc1ccc(cc1)CNc1nc(nc(OCC(F)(F)F)n1)N2)C(=O)O` [Example 1555] fall in the same range of EC50: 100 to 1000 nM for the first, 100 to 1000 nM for the second.

`COC(=O)N1CCCOc2ccc(cc2)CNc2nc(nc(OCC(F)(F)F)n2)Nc2ccc(C(=O)NCC3(CN4CCCC4)CC3)c(c2)OCCC1` [Example 3004] and `CNC(=O)N1CCCOc2ccc(cc2)CNc2nc(nc(OCC(F)(F)F)n2)Nc2ccc(C(=O)NCC3(CN4CCCC4)CC3)c(c2)OCCC1` [Example 3007] fall in the same range of EC50: 0.1 to 100 nM for the first, 0.1 to 100 nM for the second.

`CC(C)(C)OC(=O)N1CCCOc2ccc(cc2)CNc2nc(nc(OCC(F)(F)F)n2)Nc2ccc(C(=O)NCC3(CN4CCCC4)CC3)c(c2)OCCC1` [Example 3003] and `CC(C)OC(=O)N1CCCCOc2cc(ccc2C(=O)NCC2(CN3CCCC3)CC2)Nc2nc(nc(OCC(F)(F)F)n2)NCc2ccc(cc2)OCCC1` [Example 3021] fall in the same range of EC50: 0.1 to 100 nM for the first, 0.1 to 100 nM for the second.

`CCOC(=O)[C@H]1CN(C(=O)OC(C)(C)C)C[C@H]1NC(=O)c1ccc2cc1OCCCCCCOc1ccc(cc1)CNc1nc(nc(OCC(F)(F)F)n1)N2` [Example 1320] and `CC(C)(C)OC(=O)NC[C@H](NC(=O)c1ccc2cc1OCCCCCCOc1ccc(cc1)CNc1nc(nc(OCC(F)(F)F)n1)N2)C(N)=O` [Example 1700] fall in the same range of EC50: 0.1 to 100 nM for the first, 0.1 to 100 nM for the second.

`COC(=O)c1ccc2cc1OCC=CCOc1ccc(cc1)CNc1nc(nc(OCC(F)(F)F)n1)N2` [Example 2005] and `O=C(NC1CCNC1=O)c1ccc2cc1OCCCCCCOc1ccc(cc1)CNc1nc(nc(OCC(F)(F)F)n1)N2` (centres unmarked) [Example 1324] fall in the same range of EC50: 0.1 to 100 nM for the first, 0.1 to 100 nM for the second.

First: CN(C)CC(C)(C)CNC(=O)c1ccc2cc1OCCCC(O)C(O)CCCOc1ccc(cc1)CNc1nc(nc(OCC(F)(F)F)n1)N2 (centres unmarked) [Example 1022]
Second: CN(C)CC(C)(C)CNC(=O)c1ccc2cc1OCCCCCCOCC(c1ccccc1)Nc1nc(nc(OCC(F)(F)F)n1)N2 (centres unmarked) [Example 1807]
The EC50 of the first is lower: 0.1 to 100 nM for the first, 1000 to 50000 nM for the second. The first is the more potent here.

With `CC(C)(C)OC(=O)N1CCC2(CCN(C(=O)c3ccc4cc3OCCCCCCCCOc3ccc(cc3)CNc3nc(nc(OCC(F)(F)F)n3)N4)C2)C1` (centres unmarked) [Example 1109] the EC50 was 100 to 1000 nM.

same assay, conditions: read-out: EC50

Compared with `COC(=O)c1ccc2cc1OCCCCOC[C@H](c1ccccc1)Nc1nc(nc(OCC(F)(F)F)n1)N2` [Example 1003], `NC[C@H](NC(=O)c1ccc2cc1OCCCCCCOc1ccc(cc1)CNc1nc(nc(OCC(F)(F)F)n1)N2)C(=O)O` [Example 1559] is lower in EC50: 1000 to 50000 nM for the first, 0.1 to 100 nM for the second.
